Values of other authors in patent publication US20090269400A1, “Nanoparticulate and Controlled Release Compositions Comprising a Cephalosporin” (ELAN PHARMA INTERNATIONAL LIMITED, priority 2005, published 2009).
Read-outs that look alike come from different tables or passages of the source.

Conditions: stated in words in background/summary, no method given

solubility in water | solubility in water (listed as cefpodoxime proxetil) | Compound
practically insoluble in water | only slightly soluble in water | COCC1=C(C(=O)OC(C)OC(=O)OC(C)C)N2C(=O)[C@@H](NC(=O)/C(=N\OC)c3csc(N)n3)[C@H]2SC1 (mixture of isomers) [Cefpodoxime proxetil, (RS)-1(isopropoxycarbonyloxy)ethyl (+)-(6R,7R)-7-[2-(2-amino-4-thiazolyl)-2-{(Z)methoxyimino}acetamido]-3-methoxymethyl-8-oxo-5-thia-1-azabicyclo [4.2.0]oct-2-ene-2-carboxylate]
practically insoluble in water |  | COCC1=C(C(=O)O)N2C(=O)[C@@H](NC(=O)/C(=N\OC)c3csc(N)n3)[C@H]2SC1 [cefpodoxime]
